For three molecules, pKa results are on record in patent US8420216B2, “Thermosetting resin composition” (Showa Denko K.K., priority 2007, dated 2013).

The nature of this data set: pKa of curing accelerator (dissociation constant of aqueous solution at 25° C.). Format: physicochemical. The protocol:
The “pKa value” referred to in the invention is a numerical value represented by the following formula when the dissociation constant of an aqueous solution at 25° C. is denoted by “Ka”. The dissociation constant Ka of the aqueous solution is determined by, for example, measuring a hydrogen ion concentration of the aqueous solution by a pH meter and calculating concentrations of a dissociated component and an undissociated component after dissolution by the use of the resulting hydrogen ion concentration and weighed values of the solvate and water before dissolution. pKa=−log10 Ka

[1] abbreviates: aqueous solution at 25° C., values in text.
The mark [2] stands for this setting: aqueous solution, of the curing accelerator, Table 1, read-out: pKa.

Several values for one entry are separate records, joined by “and”; a condition that tells them apart may be missing. Equal values may be shown once. Read-outs that look alike come from different tables or passages of the source.

Take `Cc1ncc[nH]1` [2-methylimidazole]: the pKa was 7.9 under setting [1]; 7.88 (aqueous solution, aqueous solution at 25° C., values in text, read-out: pKa); 7.9 under setting [2].
Consider `Nc1nc(N)nc(N)n1` [melamine], for which the pKa turned out to be 5 (aqueous solution at 25° C., values in text, read-out: pKa) and 5 under setting [2].
On to `C1CCC2=NCCCN2CC1` [DBU, 1,8-diazabicyclo[5.4.0]undecene-7], for which the pKa is 12.5 under setting [1]; 12.7 and 12.5 (of the curing accelerator, Table 1).
